Columns and labels:
Settings in all cases: 48 h
[1] = tested on: NOMO1; assay: cell viability relative to DMSO control; higher = less cytotoxic
Method in brief: (§1)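 Library compounds in DMSO were pin-dosed in an 11-point threefold series (47 μM to 0.79 nM) onto leukemia cells in 1536-well plates (5 μl). Plates held 500 cells/well of NOMO1 or SEM or 1000 cells/well of P12-Ichikawa, each adapted for at least four passages in each medium. Luminescence was read with CellTiter-Glo One after 48 h at 37°C. Viability means the per-plate percentage relative to DMSO wells, using cell-free wells as background.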

[2] = tested on: P12-Ichikawa; assay: as above
Method in brief: as §1

[3] = tested on: SEM cells; assay: as above
Method in brief: as §1

[4] = tested on: NOMO1; assay: AUC of viability dose-response curve (% viability x log10 dose units); higher = less sensitive
Method in brief: (§2)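 Library compounds in DMSO were applied for 48 h at 37°C at 11 threefold doses (47 μM to 0.79 nM) to medium-adapted leukemia cells in 1536-well plates holding 500 or 1000 cells/well. Luminescence from CellTiter-Glo One was normalised plate by plate against DMSO and cell-free wells. Area under the curve came from trapezoidal integration of a log-logistic fit, after scaling curves that rose above full viability and discarding those that failed quality control. The fit had four parameters and used log10 doses.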

[5] = tested on: P12-Ichikawa; assay: as above
Method in brief: as §2

[6] = tested on: SEM cells; assay: as above
Method in brief: as §2

CC(S)C(=O)NCC(=O)O (stereo unspecified)
cell viability [%]
Settings | [1] | [2] | [3]
HPLM + 10% dialyzed FBS, 0.000781 µM | 116 | 106 | 40
HPLM + 10% dialyzed FBS, 0.00234 µM | 109 | 110 | 99
HPLM + 10% dialyzed FBS, 0.00702 µM | 110 | 118 | 59.5
HPLM + 10% dialyzed FBS, 0.0211 µM | 116 | 109 | 95
HPLM + 10% dialyzed FBS, 0.0632 µM | 116 | 119 | 105
HPLM + 10% dialyzed FBS, 0.19 µM | 123 | 101 | 101
HPLM + 10% dialyzed FBS, 0.569 µM | 108 | 129 | 92.8
HPLM + 10% dialyzed FBS, 1.71 µM | 114 | 117 | 103
HPLM + 10% dialyzed FBS, 5.12 µM | 111 | 118 | 90.6
HPLM + 10% dialyzed FBS, 15.4 µM | 97.9 | 113 | 113
HPLM + 10% dialyzed FBS, 46.1 µM | 89.4 | 106 | 95
RPMI 5 mM glucose + 10% FBS, 0.000781 µM | 120 | 109 | 33
RPMI 5 mM glucose + 10% FBS, 0.00234 µM | 112 | 112 | 102
RPMI 5 mM glucose + 10% FBS, 0.00702 µM | 109 | 108 | 50.5
RPMI 5 mM glucose + 10% FBS, 0.0211 µM | 107 | 119 | 87.8
RPMI 5 mM glucose + 10% FBS, 0.0632 µM | 107 | 116 | 114
RPMI 5 mM glucose + 10% FBS, 0.19 µM | 111 | 115 | 105
RPMI 5 mM glucose + 10% FBS, 0.569 µM | 107 | 114 | 101
RPMI 5 mM glucose + 10% FBS, 1.71 µM | 110 | 126 | 105
RPMI 5 mM glucose + 10% FBS, 5.12 µM | 114 | 115 | 84
RPMI 5 mM glucose + 10% FBS, 15.4 µM | 116 | 109 | 109
RPMI 5 mM glucose + 10% FBS, 46.1 µM | 107 | 106 | 108
RPMI 5 mM glucose + 10% dialyzed FBS, 0.000781 µM | 105 | 108 | 35.6
RPMI 5 mM glucose + 10% dialyzed FBS, 0.00234 µM | 113 | 105 | 92.5
RPMI 5 mM glucose + 10% dialyzed FBS, 0.00702 µM | 113 | 111 | 45
RPMI 5 mM glucose + 10% dialyzed FBS, 0.0211 µM | 107 | 118 | 101
RPMI 5 mM glucose + 10% dialyzed FBS, 0.0632 µM | 107 | 112 | 123
RPMI 5 mM glucose + 10% dialyzed FBS, 0.19 µM | 105 | 112 | 108
RPMI 5 mM glucose + 10% dialyzed FBS, 0.569 µM | 107 | 113 | 114
RPMI 5 mM glucose + 10% dialyzed FBS, 1.71 µM | 112 | 113 | 118
RPMI 5 mM glucose + 10% dialyzed FBS, 5.12 µM | 105 | 113 | 80.7
RPMI 5 mM glucose + 10% dialyzed FBS, 15.4 µM | 96.5 | 120 | 119
RPMI 5 mM glucose + 10% dialyzed FBS, 46.1 µM | 112 | 102 | 104

AUC of viability dose-response curve
Settings | [4] | [5] | [6]
HPLM + 10% dialyzed FBS | 464 | 471 | 438
RPMI 5 mM glucose + 10% FBS | 440 | 476 | 432
RPMI 5 mM glucose + 10% dialyzed FBS | 469 | 472 | 417

NCCc1ccc(O)c(O)c1
cell viability [%]
Settings | [1] | [2] | [3]
HPLM + 10% dialyzed FBS, 0.000781 µM | 118 | – | 119
HPLM + 10% dialyzed FBS, 0.00234 µM | 124 | – | 137
HPLM + 10% dialyzed FBS, 0.00702 µM | 123 | – | 121
HPLM + 10% dialyzed FBS, 0.0211 µM | 119 | – | 133
HPLM + 10% dialyzed FBS, 0.0632 µM | 131 | – | 130
HPLM + 10% dialyzed FBS, 0.19 µM | 112 | – | 132
HPLM + 10% dialyzed FBS, 0.569 µM | 131 | – | 131
HPLM + 10% dialyzed FBS, 1.71 µM | 125 | – | 110
HPLM + 10% dialyzed FBS, 5.12 µM | 104 | – | 109
HPLM + 10% dialyzed FBS, 15.4 µM | 27.5 | – | 86
HPLM + 10% dialyzed FBS, 46.1 µM | 7.83 | – | 8.51
RPMI 5 mM glucose + 10% FBS, 0.000781 µM | 120 | – | 113
RPMI 5 mM glucose + 10% FBS, 0.00234 µM | 112 | – | 136
RPMI 5 mM glucose + 10% FBS, 0.00702 µM | 115 | – | 123
RPMI 5 mM glucose + 10% FBS, 0.0211 µM | 127 | – | 123
RPMI 5 mM glucose + 10% FBS, 0.0632 µM | 121 | – | 127
RPMI 5 mM glucose + 10% FBS, 0.19 µM | 124 | – | 139
RPMI 5 mM glucose + 10% FBS, 0.569 µM | 113 | – | 122
RPMI 5 mM glucose + 10% FBS, 1.71 µM | 110 | – | 96.5
RPMI 5 mM glucose + 10% FBS, 5.12 µM | 110 | – | 128
RPMI 5 mM glucose + 10% FBS, 15.4 µM | 54.3 | – | 107
RPMI 5 mM glucose + 10% FBS, 46.1 µM | 14 | – | 18.6
RPMI 5 mM glucose + 10% dialyzed FBS, 0.000781 µM | – | 128 | 99
RPMI 5 mM glucose + 10% dialyzed FBS, 0.00234 µM | – | 124 | 124
RPMI 5 mM glucose + 10% dialyzed FBS, 0.00702 µM | – | 123 | 107
RPMI 5 mM glucose + 10% dialyzed FBS, 0.0211 µM | – | 126 | 111
RPMI 5 mM glucose + 10% dialyzed FBS, 0.0632 µM | – | 131 | 123
RPMI 5 mM glucose + 10% dialyzed FBS, 0.19 µM | – | 123 | 111
RPMI 5 mM glucose + 10% dialyzed FBS, 0.569 µM | – | 129 | 109
RPMI 5 mM glucose + 10% dialyzed FBS, 1.71 µM | – | 121 | 105
RPMI 5 mM glucose + 10% dialyzed FBS, 5.12 µM | – | 121 | 107
RPMI 5 mM glucose + 10% dialyzed FBS, 15.4 µM | – | 124 | 95.2
RPMI 5 mM glucose + 10% dialyzed FBS, 46.1 µM | – | 110 | 11.5

AUC of viability dose-response curve
Settings | [4] | [5] | [6]
HPLM + 10% dialyzed FBS | 410 | 464 | 431
RPMI 5 mM glucose + 10% FBS | 426 | 463 | 450
RPMI 5 mM glucose + 10% dialyzed FBS | 429 | 474 | 449

C[N+]1(C)[C@@H]2CC(OC(=O)C(O)(c3cccs3)c3cccs3)C[C@H]1[C@@H]1O[C@@H]12 (stereo partly specified)
cell viability [%]
Settings | [1] | [2] | [3]
HPLM + 10% dialyzed FBS, 0.000781 µM | 109 | 98.7 | 94.8
HPLM + 10% dialyzed FBS, 0.00234 µM | 113 | 105 | 95.5
HPLM + 10% dialyzed FBS, 0.00702 µM | 117 | 109 | 107
HPLM + 10% dialyzed FBS, 0.0211 µM | 126 | 106 | 102
HPLM + 10% dialyzed FBS, 0.0632 µM | 107 | 109 | 113
HPLM + 10% dialyzed FBS, 0.19 µM | 120 | 110 | 103
HPLM + 10% dialyzed FBS, 0.569 µM | 128 | 109 | 103
HPLM + 10% dialyzed FBS, 1.71 µM | 113 | 109 | 114
HPLM + 10% dialyzed FBS, 5.12 µM | 105 | 103 | 106
HPLM + 10% dialyzed FBS, 15.4 µM | 110 | 112 | 113
HPLM + 10% dialyzed FBS, 46.1 µM | 102 | 102 | 108
RPMI 5 mM glucose + 10% FBS, 0.000781 µM | 101 | 117 | 85.4
RPMI 5 mM glucose + 10% FBS, 0.00234 µM | 87.9 | 113 | 104
RPMI 5 mM glucose + 10% FBS, 0.00702 µM | 88.8 | 123 | 92.6
RPMI 5 mM glucose + 10% FBS, 0.0211 µM | 116 | 111 | 83
RPMI 5 mM glucose + 10% FBS, 0.0632 µM | 102 | 120 | 110
RPMI 5 mM glucose + 10% FBS, 0.19 µM | 100 | 126 | 96.3
RPMI 5 mM glucose + 10% FBS, 0.569 µM | 92.2 | 120 | 99.3
RPMI 5 mM glucose + 10% FBS, 1.71 µM | 87.8 | 116 | 103
RPMI 5 mM glucose + 10% FBS, 5.12 µM | 95.6 | 115 | 99.3
RPMI 5 mM glucose + 10% FBS, 15.4 µM | 94.4 | 111 | 114
RPMI 5 mM glucose + 10% FBS, 46.1 µM | 107 | 121 | 92.1
RPMI 5 mM glucose + 10% dialyzed FBS, 0.000781 µM | 90.3 | 105 | 90.9
RPMI 5 mM glucose + 10% dialyzed FBS, 0.00234 µM | 105 | 101 | 98
RPMI 5 mM glucose + 10% dialyzed FBS, 0.00702 µM | 104 | 100 | 105
RPMI 5 mM glucose + 10% dialyzed FBS, 0.0211 µM | 106 | 107 | 113
RPMI 5 mM glucose + 10% dialyzed FBS, 0.0632 µM | 115 | 105 | 119
RPMI 5 mM glucose + 10% dialyzed FBS, 0.19 µM | 94.9 | 111 | 119
RPMI 5 mM glucose + 10% dialyzed FBS, 0.569 µM | 106 | 109 | 111
RPMI 5 mM glucose + 10% dialyzed FBS, 1.71 µM | 97.3 | 109 | 139
RPMI 5 mM glucose + 10% dialyzed FBS, 5.12 µM | 99.4 | 111 | 108
RPMI 5 mM glucose + 10% dialyzed FBS, 15.4 µM | 99 | 113 | 121
RPMI 5 mM glucose + 10% dialyzed FBS, 46.1 µM | 99.9 | 101 | 101

AUC of viability dose-response curve
Settings | [4] | [5] | [6]
HPLM + 10% dialyzed FBS | 464 | 471 | 462
RPMI 5 mM glucose + 10% FBS | 466 | 476 | 460
RPMI 5 mM glucose + 10% dialyzed FBS | 471 | 468 | 457

— the supplement of paper PMC11451515
